Several values for one entry are separate records, joined by “and”; a condition that tells them apart may be missing. Equal values may be shown once. Toxic doses and inconclusive results are not listed. Rule as the data show it: active = T/C of 150% or more; inactive = T/C below 125%.
Test system: L1210 leukemia ip in BDF1 mice, survival T/C
Assay: NCI In Vivo Anticancer Drug Screen. Data for tumor model L1210 Leukemia (intraperitoneal) in B6D2F1 (BDF1) mice
Conditions: endpoint: mean survival time, higher = longer survival
Summary of the method: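 Tumor cells were implanted, animals were treated, and survival was followed. The result divides the treated measurement by the vehicle-control measurement.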

[1] = dose: 100.0 mg/kg/injection, schedule: Q01DX001 (ip), vehicle: saline with Tween-80
[2] = dose: 100.0 mg/kg/injection, schedule: Q04DX002 (ip), vehicle: saline with Tween-80
[3] = dose: 200.0 mg/kg/injection, schedule: Q04DX002 (ip), vehicle: saline with Tween-80
[4] = dose: 400.0 mg/kg/injection, schedule: Q04DX002 (ip), vehicle: saline with Tween-80
[5] = dose: 100.0 mg/kg/injection, schedule: Q04DX003 (ip), vehicle: Klucel (hydroxypropylcellulose) (HPC)
[6] = dose: 200.0 mg/kg/injection, schedule: Q04DX003 (ip), vehicle: Klucel (hydroxypropylcellulose) (HPC)
[7] = dose: 400.0 mg/kg/injection, schedule: Q04DX003 (ip), vehicle: Klucel (hydroxypropylcellulose) (HPC)
[8] = dose: 100.0 mg/kg/injection, schedule: Q01DX001 (ip), vehicle: Klucel (hydroxypropylcellulose) (HPC)
[9] = dose: 100.0 mg/kg/injection, schedule: Q04DX003 (ip), vehicle: saline
[10] = dose: 200.0 mg/kg/injection, schedule: Q04DX003 (ip), vehicle: saline
[11] = dose: 100.0 mg/kg/injection, schedule: Q01DX001 (ip), vehicle: saline
[12] = dose: 200.0 mg/kg/injection, schedule: Q01DX001 (ip), vehicle: saline
[13] = dose: 400.0 mg/kg/injection, schedule: Q01DX001 (ip), vehicle: saline
[14] = dose: 100.0 mg/kg/injection, schedule: Q01DX009 (ip), vehicle: Klucel (hydroxypropylcellulose) (HPC)
[15] = dose: 200.0 mg/kg/injection, schedule: Q01DX009 (ip), vehicle: Klucel (hydroxypropylcellulose) (HPC)
[16] = dose: 400.0 mg/kg/injection, schedule: Q01DX009 (ip), vehicle: Klucel (hydroxypropylcellulose) (HPC)
[17] = dose: 25.0 mg/kg/injection, schedule: Q01DX009 (ip), vehicle: Klucel (hydroxypropylcellulose) (HPC)
[18] = dose: 50.0 mg/kg/injection, schedule: Q01DX009 (ip), vehicle: Klucel (hydroxypropylcellulose) (HPC)
[19] = dose: 100.0 mg/kg/injection, schedule: Q01DX009 (ip), vehicle: saline
[20] = dose: 200.0 mg/kg/injection, schedule: Q01DX009 (ip), vehicle: saline
[21] = dose: 400.0 mg/kg/injection, schedule: Q01DX009 (ip), vehicle: saline

Measured: T/C

Cc1ccc(Cl)cc1NC(=O)OCCOc1ccccc1
inactive: dose: 50.0 mg/kg/injection, schedule: Q04DX003 (ip), vehicle: saline with Tween-80 104 % of control | [1] 93 % of control | dose: 100.0 mg/kg/injection, schedule: Q01DX009 (ip), vehicle: saline with Tween-80 95 % of control | [2] 112 % of control and 89 % of control | dose: 100.0 mg/kg/injection, schedule: Q04DX003 (ip), vehicle: saline with Tween-80 96 % of control and 91 % of control | dose: 200.0 mg/kg/injection, schedule: Q01DX001 (ip), vehicle: saline with Tween-80 91 % of control | dose: 200.0 mg/kg/injection, schedule: Q01DX009 (ip), vehicle: saline with Tween-80 103 % of control and 90 % of control | [3] 94 % of control | dose: 200.0 mg/kg/injection, schedule: Q04DX003 (ip), vehicle: saline with Tween-80 102 % of control | dose: 400.0 mg/kg/injection, schedule: Q01DX001 (ip), vehicle: saline with Tween-80 98 % of control | dose: 400.0 mg/kg/injection, schedule: Q01DX009 (ip), vehicle: saline with Tween-80 95 % of control and 103 % of control | [4] 94 % of control and 95 % of control | dose: 400.0 mg/kg/injection, schedule: Q04DX003 (ip), vehicle: saline with Tween-80 88 % of control and 92 % of control

CC(=O)N(C(C)=O)c1ccc2c(c1)-n1cccc1C2=O
inactive: [5] 100 % of control | [6] 101 % of control | [7] 98 % of control

CCC(Cl)COP(=O)(CC(Cl)CC)OC(C(C)C)P(=O)(OCC(Cl)CC)OCC(Cl)CC (stereo not given)
inactive: [8] 108 % of control | dose: 200.0 mg/kg/injection, schedule: Q01DX001 (ip), vehicle: Klucel (hydroxypropylcellulose) (HPC) 101 % of control | dose: 400.0 mg/kg/injection, schedule: Q01DX001 (ip), vehicle: Klucel (hydroxypropylcellulose) (HPC) 101 % of control

CCC[N+](C)(C)CCCOC(=O)C1C2CC3OC(=O)C1C3C2 (stereo not given)
inactive: dose: 12.5 mg/kg/injection, schedule: Q04DX003 (ip), vehicle: saline 106 % of control | dose: 25.0 mg/kg/injection, schedule: Q04DX003 (ip), vehicle: saline 100 % of control | dose: 50.0 mg/kg/injection, schedule: Q04DX003 (ip), vehicle: saline 100 % of control | [9] 97 % of control | [10] 91 % of control

CCCCN(C(C)=O)c1nnc(NC(C)=O)s1
inactive: [2] 102 % of control | [3] 98 % of control | [4] 98 % of control

O=C(O)CSCc1ccc([N+](=O)[O-])cc1
inactive: [5] 100 % of control | [6] 100 % of control | [7] 100 % of control

CCOC(=O)N/N=C/c1ccc([N+](=O)[O-])cc1
inactive: [11] 94 % of control | [12] 98 % of control | [13] 102 % of control

CC(=O)CC(C)=Nc1ccc(Cl)cc1
inactive: [14] 97 % of control | [5] 96 % of control | [15] 105 % of control | [6] 110 % of control | [16] 108 % of control | [7] 104 % of control

CC(=O)c1coc(=O)cc1O
inactive: [17] 102 % of control | dose: 25.0 mg/kg/injection, schedule: Q04DX003 (ip), vehicle: Klucel (hydroxypropylcellulose) (HPC) 97 % of control | [18] 98 % of control | dose: 50.0 mg/kg/injection, schedule: Q04DX003 (ip), vehicle: Klucel (hydroxypropylcellulose) (HPC) 97 % of control | [8] 103 % of control | [14] 98 % of control | [5] 100 % of control

CC1COC(C(F)(F)Cl)(C(F)(F)Cl)O1 (stereo not given)
inactive: [19] 93 % of control and 97 % of control | dose: 100.0 mg/kg/injection, schedule: Q04DX002 (ip), vehicle: saline 96 % of control and 101 % of control | [20] 94 % of control and 92 % of control | dose: 200.0 mg/kg/injection, schedule: Q04DX002 (ip), vehicle: saline 96 % of control and 103 % of control | [21] 93 % of control and 105 % of control | dose: 400.0 mg/kg/injection, schedule: Q04DX002 (ip), vehicle: saline 100 % of control and 105 % of control

O=C(COc1ccc(Cl)c(Cl)c1)Nc1ccc[n+](CC(=O)c2cccc(S(=O)(=O)F)c2)c1
inactive: dose: 25.0 mg/kg/injection, schedule: Q01DX001 (ip), vehicle: saline with Tween-80 96 % of control | dose: 50.0 mg/kg/injection, schedule: Q01DX001 (ip), vehicle: saline with Tween-80 98 % of control | [1] 107 % of control

Nc1nc(N)nc(CC(=O)O)n1
inactive: dose: 50.0 mg/kg/injection, schedule: Q01DX001 (ip), vehicle: carboxymethylcellulose (CMC) 95 % of control | dose: 100.0 mg/kg/injection, schedule: Q01DX001 (ip), vehicle: carboxymethylcellulose (CMC) 90 % of control | dose: 200.0 mg/kg/injection, schedule: Q01DX001 (ip), vehicle: carboxymethylcellulose (CMC) 95 % of control | dose: 400.0 mg/kg/injection, schedule: Q01DX001 (ip), vehicle: carboxymethylcellulose (CMC) 93 % of control

O=C(O)C(Br)C(Br)C(=O)Nc1cccc(C(F)(F)F)c1 (stereo not given)
inactive: [17] 96 % of control | [18] 96 % of control | [14] 103 % of control | dose: 100.0 mg/kg/injection, schedule: Q01DX009 (ip), vehicle: other 96 % of control

Cc1ccc(S(C)(=N)=O)cc1 (stereo not given)
inactive: [19] 102 % of control | [9] 95 % of control | [20] 100 % of control | [10] 98 % of control | [21] 105 % of control | dose: 400.0 mg/kg/injection, schedule: Q04DX003 (ip), vehicle: saline 98 % of control

COc1cc(C(=O)CCC(=O)O)c(OC)c(CBr)c1CBr
inactive: dose: 5.0 mg/kg/injection, schedule: Q01DX001 (ip), vehicle: other 101 % of control | dose: 10.0 mg/kg/injection, schedule: Q01DX001 (ip), vehicle: other 110 % of control | dose: 20.0 mg/kg/injection, schedule: Q01DX001 (ip), vehicle: other 101 % of control

CC1(C)CCC2CC(=O)OC2(C)C1 (stereo not given)
inactive: [11] 109 % of control | [19] 100 % of control | [12] 95 % of control | [20] 94 % of control | [13] 92 % of control | [21] 98 % of control

Cc1[nH]c(=O)[nH]c(=O)c1C
inactive: [14] 106 % of control | [5] 102 % of control | [15] 103 % of control | [6] 98 % of control | [16] 93 % of control | [7] 91 % of control

O=C(O)COc1ccc([N+](=O)[O-])cc1F
inactive: dose: 100.0 mg/kg/injection, schedule: Q04DX002 (ip), vehicle: other 102 % of control | dose: 200.0 mg/kg/injection, schedule: Q04DX002 (ip), vehicle: other 88 % of control | dose: 400.0 mg/kg/injection, schedule: Q04DX002 (ip), vehicle: other 91 % of control

Cc1cc(=O)[nH]c2ccc(Cc3ccc4[nH]c(=O)cc(C)c4c3)cc12
inactive: [11] 102 % of control | [12] 102 % of control | [13] 107 % of control

— PubChem BioAssay AID248 (DTP/NCI, 2004)
